Assay results: US12011444B2, “N-substituted indole derivatives as PGE2 receptor modulators” (Idorsia Pharmaceuticals Ltd, priority 2015, dated 2024)
pIC50: −log10 of the molar value.

Assays:
PTGER2 (EP2) = PTGER2 (EP2) (Homo sapiens (Human), UniProt P43116); test: hEP2 b-arrestin assay (PathHunter HEK 293 PTGER2 b-arrestin cells); type: cell-based
Description: (§1) The assay is using the PathHunter™ HEK 293 PTGER2 and PTGER4 b-arrestin cell lines from DiscoverX. The system is based on the Enzyme Fragment Complementation Technology. Two complementing fragments of the b-galactosidase enzyme are expressed within stably transfected cells. The larger portion of b-gal, termed EA for Enzyme Acceptor, is fused to the C-terminus of b-arrestin 2. The smaller fragment, termed ProLink™ tag, is fused to PTGER2 (EP2) or PTRGER4 (EP4) at the C-terminus. Upon activation, b-arrestin is recruited which forces the interaction of ProLink and EA, allowing complementation of the two fragments of b-gal and the formation of a functional enzyme which is capable of hydrolysing the substrate and generating a chemiluminescent signal.
(§2) 5000 cells per well of a 384 well plate (white with white bottom Greiner 781080) are seeded in 20 ul per well of GM. Plate is incubated at 37° C., 5% C02 for 24 hours.
Plate is pre-incubated 15 minutes at 37° C. Then five microliters of PGE2 (final conc. 5 μM) are transferred into the assay plate. Plate is incubated 120 minutes at 37° C.
(§3) Twelve μl of reagent are transferred to the assay plate and incubate for 1 hour at room temperature in the dark. Luminescence counts are read on a BMG Fluostar Optima reader according to manufacturer's instructions. For each compound concentration calculate of the percentage of activity compared to DMSO control value as average±STDEV. (each concentration is measured in duplicate)

PTRGER4 (EP4) = PTRGER4 (EP4) (Homo sapiens (Human), UniProt P35408); test: hEP4 b-arrestin assay (PathHunter HEK 293 PTGER4 b-arrestin cells); type: cell-based
Description: as §1, §2
Plate is pre-incubated 15 minutes at 37° C. Then five microliters of PGE2 (final conc. 20 nM) are transferred into the assay plate. Plate is incubated 120 minutes at 37° C.
as §3, with “average±STDEV.” for “average±STDEV. (each concentration is measured in duplicate)”

[1] = hEP2 b-arrestin assay (values without asterisk)
[2] = hEP4 b-arrestin assay (values without asterisk)
[3] = antagonistic activity on hEP2, mean where measured multiple times
[4] = antagonistic activity on hEP4, mean where measured multiple times

Sequence of PTRGER4 (EP4) (P35408 whole entry, looked up): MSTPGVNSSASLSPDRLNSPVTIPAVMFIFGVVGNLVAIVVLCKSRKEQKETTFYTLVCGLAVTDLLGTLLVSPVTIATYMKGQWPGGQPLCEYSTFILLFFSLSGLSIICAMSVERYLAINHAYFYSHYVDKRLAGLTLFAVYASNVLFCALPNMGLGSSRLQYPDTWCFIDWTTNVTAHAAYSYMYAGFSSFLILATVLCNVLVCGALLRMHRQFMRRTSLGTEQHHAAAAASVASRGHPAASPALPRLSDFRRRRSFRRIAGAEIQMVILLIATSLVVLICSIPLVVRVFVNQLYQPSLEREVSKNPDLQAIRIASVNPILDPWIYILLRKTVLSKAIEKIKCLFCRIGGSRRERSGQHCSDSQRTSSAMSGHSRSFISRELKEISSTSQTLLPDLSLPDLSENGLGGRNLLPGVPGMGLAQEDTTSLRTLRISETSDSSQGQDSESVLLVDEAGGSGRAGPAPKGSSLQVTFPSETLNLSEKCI
Sequence of PTGER2 (EP2) (P43116 whole entry, the tested form may be a part): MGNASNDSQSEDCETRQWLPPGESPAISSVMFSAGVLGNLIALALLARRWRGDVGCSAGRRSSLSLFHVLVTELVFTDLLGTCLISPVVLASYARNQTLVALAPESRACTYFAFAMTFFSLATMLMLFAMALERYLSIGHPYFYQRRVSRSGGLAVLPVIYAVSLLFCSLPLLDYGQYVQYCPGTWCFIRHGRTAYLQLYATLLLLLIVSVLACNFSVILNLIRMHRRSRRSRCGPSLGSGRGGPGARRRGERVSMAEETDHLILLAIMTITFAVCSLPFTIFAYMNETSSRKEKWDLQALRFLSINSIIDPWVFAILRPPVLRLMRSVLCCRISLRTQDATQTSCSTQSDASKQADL

Molecule	pIC50 (PTGER2 (EP2); [1])	pIC50 (PTRGER4 (EP4); [2])	pIC50 (PTGER2 (EP2); [3])	pIC50 (PTRGER4 (EP4); [4])
4-{6-[2-(2-Cyano-7-fluoro-4-methoxy-indol-1-yl)-ethylamino]-pyrimidin-4-yl}-phthalic acid 2-ethyl ester [Example 965]	7.28	7.37	–	–
5-{6-[2-(6-Fluoro-4-methoxy-2-methyl-indol-1-yl)-ethylamino]-pyrimidin-4-yl}-thiophen-3-ol [Example 801]	7.70	6.86	–	–
CCOc1cc(-c2cc(NCC(C)n3c(C)cc4c(OC)ccc(F)c43)ncn2)sc1C(=O)O (racemic) [Example 796, rac-3-Ethoxy-5-{6-[2-(7-fluoro-4-methoxy-2-methyl-indol-1-yl)-propylamino]-pyrimidin-4-yl}-thiophene-2-carboxylic acid]	7.32	6.88	–	–
CCOc1cc(-c2cc(NC(C)Cn3c(C)cc4c(OC)ccc(F)c43)ncn2)sc1C(=O)O (racemic) [Example 797, rac-3-Ethoxy-5-{6-[2-(7-fluoro-4-methoxy-2-methyl-indol-1-yl)-1-methyl-ethylamino]-pyrimidin-4-yl}-thiophene-2-carboxylic acid]	7.48	7.19	–	–
CCOc1cc(-c2cc(NCCn3c(C)cc4c(OC)ccc(F)c43)ncn2)ccc1NC(C)C(=O)O (racemic) [Example 839, rac-2-(2-Ethoxy-4-{6-[2-(7-fluoro-4-methoxy-2-methyl-indol-1-yl)-ethylamino]-pyrimidin-4-yl}-phenylamino)-propionic acid]	8.52	7.36	–	–
CCOc1cc(-c2cc(NCCn3c(C)cc4c(OC)ccc(F)c43)ncn2)ccc1OC(C)C(=O)O (racemic) [Example 843, rac-2-(2-Ethoxy-4-{6-[2-(7-fluoro-4-methoxy-2-methyl-indol-1-yl)-ethylamino]-pyrimidin-4-yl}-phenoxy)-propionic acid]	7.96	6.95	–	–
COc1ccc(F)c2c1cc(C#N)n2CCNc1cc(-c2ccc(C(O)CO)cc2)ncn1 (racemic) [Example 862, rac-1-(2-{6-[4-(1,2-Dihydroxy-ethyl)-phenyl]-pyrimidin-4-ylamino}-ethyl)-7-fluoro-4-methoxy-1H-indole-2-carbonitrile]	7.05	6.71	–	–
COc1cccc2c1cc(C)n2CCNc1cc(-c2ccc3c(c2)C(C)NC3=O)ncn1 (racemic) [compound 86]	–	–	7.92	6.06
Cc1ccc(F)c2c1cc(C)n2CCNc1cc(-c2ccc3c(c2)C(C)NC3=O)ncn1 (racemic) [compound 96]	–	–	7.77	6.24
CCC1NC(=O)c2ccc(-c3cc(NCCn4c(C)cc5c(OC)cccc54)ncn3)cc21 (racemic) [compound 196]	–	–	7.92	6.65
COc1ccc(F)c2c1cc(C)n2CCNc1cc(-c2ccc3c(c2)C(C)NC3=O)ncn1 (racemic) [compound 203]	–	–	7.85	6.49
CCC1NC(=O)c2ccc(-c3cc(NCCn4c(C)cc5c(C)ccc(F)c54)ncn3)cc21 (racemic) [compound 207]	–	–	7.72	6.19
CCCC1NC(=O)c2ccc(-c3cc(NCCn4c(C)cc5c(OC)cccc54)ncn3)cc21 (racemic) [compound 314]	–	–	7.82	6.52
CCC1NC(=O)c2ccc(-c3cc(NCCn4c(C)cc5c(OC)ccc(F)c54)ncn3)cc21 (racemic) [compound 319]	–	–	8.00	6.53
CCCC1NC(=O)c2ccc(-c3cc(NCCn4c(C)cc5c(C)ccc(F)c54)ncn3)cc21 (racemic) [compound 322]	–	–	7.26	6.53
CCC(C)c1cc(-c2cc(NCCn3c(C)cc4c(C)ccc(F)c43)ncn2)ccc1C(=O)O (racemic) [compound 337]	–	–	7.05	6.51

Molecule	pIC50 (PTGER2 (EP2); [1])	pIC50 (PTRGER4 (EP4); [2])	pIC50 (PTGER2 (EP2); [3])	pIC50 (PTRGER4 (EP4); [4])
COc1ccc(F)c2c1cc(C)n2CCNc1cc(-c2ccc(N)cc2)ncn1 [Example 4, [6-(4-amino-phenyl)-pyrimidin-4-yl]-[2-(7-fluoro-4-methoxy-2-methyl-indol-1-yl)-ethyl]-amine]	–	–	7.66	6.39
CCOc1cc(-c2cc(NCCn3c(C)cc4c(C)ccc(F)c43)ncn2)ccc1C(=O)O [Example 158, 2-ethoxy-4-{6-[2-(7-fluoro-2,4-dimethyl-indol-1-yl)-ethylamino]-pyrimidin-4-yl}-benzoic acid]	–	–	7.41	6.79
CCOc1cc(-c2cc(NCCn3c(C)cc4c(OC)ccc(F)c43)ncn2)sc1C(=O)O [Example 258, 3-Ethoxy-5-{6-[2-(7-fluoro-4-methoxy-2-methyl-indol-1-yl)-ethylamino]-pyrimidin-4-yl}-thiophene-2-carboxylic acid]	–	–	9.00	8.00
CCOc1cc(-c2cc(NCCn3c(C)cc4c(OC)ccc(F)c43)ncn2)ccc1C(=O)O [Example 326, 2-ethoxy-4-{6-[2-(7-fluoro-4-methoxy-2-methyl-indol-1-yl)-ethylamino]-pyrimidin-4-yl}-benzoic acid]	–	–	7.74	6.65
COc1ccc(F)c2c1cc(C)n2CCNc1cc(-c2ccc(-c3csc(O)n3)cc2)ncn1 [Example 798, 4-(4-{6-[2-(7-Fluoro-4-methoxy-2-methyl-indol-1-yl)-ethylamino]-pyrimidin-4-yl}-phenyl)-thiazol-2-ol]	7.55	6.91	–	–
COc1ccc(F)c2c1cc(C)n2CCNc1cc(-c2cc(O)c(C(=O)O)s2)ncn1 [Example 799, 5-{6-[2-(7-Fluoro-4-methoxy-2-methyl-indol-1-yl)-ethylamino]-pyrimidin-4-yl}-3-hydroxy-thiophene-2-carboxylic acid]	7.68	7.23	–	–
COc1cc(F)cc2c1cc(C)n2CCNc1cc(-c2cc(O)c(C(=O)O)s2)ncn1 [Example 800, 5-{6-[2-(6-Fluoro-4-methoxy-2-methyl-indol-1-yl)-ethylamino]-pyrimidin-4-yl}-3-hydroxy-thiophene-2-carboxylic acid]	7.92	7.36	–	–
COc1ccc(F)c2c1cc(C#N)n2CCNc1cc(-c2cc(OC(C)C)c(C(=O)O)s2)ncn1 [Example 802, 5-{6-[2-(2-Cyano-7-fluoro-4-methoxy-indol-1-yl)-ethylamino]-pyrimidin-4-yl}-3-isopropoxy-thiophene-2-carboxylic acid]	8.15	9.00	–	–
CCOc1cc(-c2cc(NCCn3c(C#N)cc4c(OC)ccc(F)c43)ncn2)ccc1-c1nnn[nH]1 [Example 803, 1-(2-{6-[3-Ethoxy-4-(1H-tetrazol-5-yl)-phenyl]-pyrimidin-4-ylamino}-ethyl)-7-fluoro-4-methoxy-1H-indole-2-carbonitrile]	8.00	8.40	–	–
COc1ccc(F)c2c1cc(C#N)n2CCNc1cc(-c2cc(C(F)(F)F)c(C(=O)O)s2)ncn1 [Example 804, 5-{6-[2-(2-Cyano-7-fluoro-4-methoxy-indol-1-yl)-ethylamino]-pyrimidin-4-yl}-3-trifluoromethyl-thiophene-2-carboxylic acid]	8.52	8.70	–	–
CCOc1cc(-c2cc(NCCn3c(C#N)cc4c(OC)ccc(F)c43)ncn2)sc1C(=O)O [Example 805, 5-{6-[2-(2-cyano-7-fluoro-4-methoxy-indol-1-yl)-ethylamino]-pyrimidin-4-yl}-3-ethoxy-thiophene-2-carboxylic acid]	8.40	8.30	–	–
COc1ccc(F)c2c1cc(C#N)n2CCNc1cc(-c2cc(F)c(C(=O)O)s2)ncn1 [Example 806, 5-{6-[2-(2-Cyano-7-fluoro-4-methoxy-indol-1-yl)-ethylamino]-pyrimidin-4-yl}-3-fluoro-thiophene-2-carboxylic acid]	8.15	8.00	–	–
CCOc1cc(-c2cc(NCCn3c(C#N)cc4c(OC)ccc(F)c43)ncn2)ccc1C(=O)O [Example 807, 4-{6-[2-(2-Cyano-7-fluoro-4-methoxy-indol-1-yl)-ethylamino]-pyrimidin-4-yl}-2-ethoxy-benzoic acid]	7.49	7.26	–	–
CCOc1cc(-c2cc(NCCn3c(C#N)cc4c(OC)ccc(F)c43)ncn2)ccc1OCC(=O)O [Example 808, (4-{6-[2-(2-Cyano-7-fluoro-4-methoxy-indol-1-yl)-ethylamino]-pyrimidin-4-yl}-2-ethoxy-phenoxy)-acetic acid]	8.15	8.40	–	–
CCOc1cc(-c2cc(NCCn3c(C#N)cc4c(OC)ccc(F)c43)ncn2)sc1C(=O)NS(C)(=O)=O [Example 809, N-(5-{6-[2-(2-Cyano-7-fluoro-4-methoxy-indol-1-yl)-ethylamino]-pyrimidin-4-yl}-3-ethoxy-thiophene-2-carbonyl)-methanesulfonamide]	8.52	8.22	–	–
